From patent US20260216198A1, “GPR35 MODULATORS” (ThirtyFiveBio Limited, priority 2023, published 2026)

What follows are compounds tested against T1, GPR35 (Homo sapiens, UniProt Q9HC97) (assay: cellular GPR35 phospho-ERK HTRF assay (inhibition of lodoxamide-induced phospho-ERK signal)). Conditions: GPR35-CHO-K1-mt aequorin-Gα16 cell line; agonist lodoxamide at EC80; read-out: Activity Group (IC50, inhibition of GPR35 agonist-induced phospho-ERK signal).
T1 construct: expressed in transfected cells; host or cells: CHO-K1 cells co-expressing mitochondrial aequorin and Gα16
Type: cell-based
Text: (§1) The functional GPR35 assay as described in the accompanying examples measures the ability of GPR35 modulators to inhibit a GPR35 agonist-induced phospho-ERK signal. This is expressed as the concentration of modulator required to reduce the phospho-ERK signal by 50 percent, i.e. the IC50; the signal window being defined as the difference between agonist plus modulator vehicle (no modulator) and agonist vehicle (no agonist) controls.
as §1, with “functional” for “functional GPR35”, “assay” for “assay as”, “described” for “described in the accompanying examples”
This assay is a cellular GPR35 phospho-ERK homogeneous time resolved fluorescence (HTRF) assay using the GPR35-CHO-K1-mt aequorin-Gα16 cell line. Upon activation of GPR35 with the agonist lodoxamide at EC80 concentration, ERK 1/2 is phosphorylated, and after lysis of the cell membrane, phospho-ERK1/2 (Thr202/Tyr204) is detected in a sandwich assay using two different specific antibodies, one labelled with Eu^3+-cryptate (donor) and the second with d2 (acceptor). When the dyes are in proximity, the excitation of the donor with a light source (laser or flash lamp) triggers a Fluorescence Resonance Energy Transfer (FRET) towards the acceptor, resulting in specific acceptor fluorescence (at 665 nm). The specific signal is directly proportional to the amount of phospho-ERK1/2 (Thr202/Tyr204) in the sample. Compounds that interfere with the levels of phospho-ERK1/2 (Thr202/Tyr204) will result in a low HTRF signal.

T1 sequence (Q9HC97 whole entry): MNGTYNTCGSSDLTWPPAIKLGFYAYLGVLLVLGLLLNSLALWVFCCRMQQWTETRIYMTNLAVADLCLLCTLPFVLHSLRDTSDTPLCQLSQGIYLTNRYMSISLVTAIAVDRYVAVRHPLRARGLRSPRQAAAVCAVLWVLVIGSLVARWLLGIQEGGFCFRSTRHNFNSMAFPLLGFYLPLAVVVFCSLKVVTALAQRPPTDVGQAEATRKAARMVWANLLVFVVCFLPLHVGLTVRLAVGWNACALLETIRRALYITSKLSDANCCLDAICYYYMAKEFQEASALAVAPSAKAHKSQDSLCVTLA

Row | Compound | IC50
1 | CN(C)c1ncc(-c2cccc(C(=O)Nc3ccc(OCCc4ccccc4)cc3)c2)cc1C(=O)O [Example 35, 2-(Dimethylamino)-5-(3-((4-phenethoxyphenyl)carbamoyl)phenyl)nicotinic acid] | < 1000 nM
2 | COCCOc1ncc(C(=O)Nc2ccc(OCCc3ccccc3)cc2)cc1-c1cnc(C)c(C(=O)O)c1 [Example 95, 5-[2-(2-Methoxyethoxy)-5-[[4-(2-phenylethoxy)phenyl]carbamoyl]-3-pyridyl]-2-methyl-pyridine-3-carboxylic acid] | 1000 to 10000 nM
3 | Cc1ncc(-c2ccc(F)c(C(=O)Nc3ccc(COCc4ccccc4)c(F)c3)c2)cc1C(=O)O [Example 90, 5-[3-[[4-(Benzyloxymethyl)-3-fluoro-phenyl]carbamoyl]-4-fluoro-phenyl]-2-methyl-pyridine-3-carboxylic acid] | < 1000 nM
4 | Cc1ncc(-c2cc(C(=O)Nc3ccc(OCC4CC4)cc3)ccn2)cc1C(=O)O [Example 72, 5-[4-[[4-(Cyclopropylmethoxy)phenyl]carbamoyl]-2-pyridyl]-2-methyl-pyridine-3-carboxylic acid] | 1000 to 10000 nM
5 | O=C(Nc1ccc(OCCc2ccccc2)cc1)c1cccc(-c2cnc(Cl)c(C(=O)O)c2)c1 [Example 19, 2-Chloro-5-(3-((4-phenethoxyphenyl)carbamoyl)phenyl)nicotinic acid] | < 1000 nM
6 | O=C(Nc1ccc(OCCc2ccccc2)cc1)c1cccc(-c2cnnc(C(=O)O)c2)c1 [Example 28, 5-(3-((4-Phenethoxyphenyl)carbamoyl)phenyl)pyridazine-3-carboxylic acid] | < 1000 nM
7 | O=C(Nc1ccc(OCCc2ccccc2)cc1)c1cccc(-c2ccnc(C(=O)O)c2)c1 [Example 21, 4-(3-((4-Phenethoxyphenyl)carbamoyl)phenyl)picolinic acid] | 1000 to 10000 nM
8 | O=C(Nc1ccc(OCCc2ccccc2)cc1)c1cccc(-c2cnc(NCCO)c(C(=O)O)c2)c1 [Example 36, 2-((2-Hydroxyethyl)amino)-5-(3-((4-phenethoxyphenyl)carbamoyl)phenyl)nicotinic acid] | < 1000 nM
9 | O=C(Nc1ccc(OCCc2ccccc2)cc1)c1cccc(-c2cncc(C(=O)O)n2)c1 [Example 14, 6-(3-((4-Phenethoxyphenyl)carbamoyl)phenyl)pyrazine-2-carboxylic acid] | < 1000 nM
10 | Cc1ncc(-c2cc(C(=O)Nc3ccc(OCCc4ccccc4)cc3)cnn2)cc1C(=O)O [Example 71, 2-Methyl-5-[5-[[4-(2-phenylethoxy)phenyl]carbamoyl]pyridazin-3-yl]pyridine-3-carboxylic acid] | 1000 to 10000 nM
11 | Cc1ncc(-c2cccc(C(=O)Nc3ccc(COC(C)c4ccccc4)cc3)c2)cc1C(=O)O (centres unmarked) [Example 59, 2-Methyl-5-[3-[[4-(1-phenylethoxymethyl)phenyl]carbamoyl]phenyl]pyridine-3-carboxylic acid] | < 1000 nM
12 | Cc1ncc(-c2cccc(C(=O)Nc3ccc(CS(=O)(=O)c4ccccc4Cl)cc3)c2)cc1C(=O)O [Example 98, 5-[3-[[4-[(2-Chlorophenyl)sulfonylmethyl]phenyl]carbamoyl]phenyl]-2-methyl-pyridine-3-carboxylic acid] | 1000 to 10000 nM
13 | Cc1ncc(-c2cc(C(=O)Nc3ccc(OCCc4ccccc4)cc3)ncn2)cc1C(=O)O [Example 69, 2-Methyl-5-[6-[[4-(2-phenylethoxy)phenyl]carbamoyl]pyrimidin-4-yl]pyridine-3-carboxylic acid] | < 1000 nM
14 | O=C(O)c1ccc(-c2cccc(C(=O)Nc3ccc(OCCc4ccccc4)cc3)c2)nc1 [Example 20, 6-(3-((4-Phenethoxyphenyl)carbamoyl)phenyl)nicotinic acid] | < 1000 nM
15 | COCCNc1ncc(-c2cccc(C(=O)Nc3ccc(OCCc4ccccc4)cc3)c2)cc1C(=O)O [Example 37, 2-((2-Methoxyethyl)amino)-5-(3-((4-phenethoxyphenyl)carbamoyl)phenyl)nicotinic acid] | < 1000 nM
16 | O=C(Nc1ccc(OCCc2ccccc2)cc1)c1cccc(-c2cnc(C3CC3)c(C(=O)O)c2)c1 [Example 2, 2-Cyclopropyl-5-(3-((4-phenethoxyphenyl)carbamoyl)phenyl)nicotinic acid] | < 1000 nM
17 | Cc1ncc(-c2cc(C(=O)Nc3ccc(OCCc4ccccc4)cc3)ccn2)cc1C(=O)O [Example 53, 6′-Methyl-4-((4-phenethoxyphenyl)carbamoyl)-[2,3′-bipyridine]-5′-carboxylic acid] | < 1000 nM
18 | Cc1ncc(-c2cccc(C(=O)Nc3ccc(OCC4CC4)cc3)c2)cc1C(=O)O [Example 41, 5-(3-((4-(Cyclopropylmethoxy)phenyl)carbamoyl)phenyl)-2-methylnicotinic acid] | 1000 to 10000 nM
19 | Cc1ncc(-c2cc(C(=O)Nc3ccc(COCc4ccccc4)cc3)ccn2)cc1C(=O)O [Example 74, 5-[4-[[4-(Benzyloxymethyl)phenyl]carbamoyl]-2-pyridyl]-2-methyl-pyridine-3-carboxylic acid] | < 1000 nM
20 | Cc1ncc(-c2cc(C(=O)Nc3ccc(OCC4CC4)c(F)c3)ccn2)cc1C(=O)O [Example 79, 5-[4-[[4-(Cyclopropylmethoxy)-3-fluoro-phenyl]carbamoyl]-2-pyridyl]-2-methyl-pyridine-3-carboxylic acid] | 1000 to 10000 nM
21 | O=C(O)c1cnnc(-c2cccc(C(=O)Nc3ccc(COCc4ccccc4)cc3)c2)c1 [Example 67, 6-[3-[[4-(Benzyloxymethyl)phenyl]carbamoyl]phenyl]pyridazine-4-carboxylic acid] | < 1000 nM
22 | Cc1ncc(-c2ccnc(C(=O)Nc3ccc(OCCc4ccccc4)cc3)c2)cc1C(=O)O [Example 70, 2-Methyl-5-[2-[[4-(2-phenylethoxy)phenyl]carbamoyl]-4-pyridyl]pyridine-3-carboxylic acid] | < 1000 nM
23 | Cc1ncc(-c2cccc(C(=O)Nc3ccc(COCc4ccccc4)cc3)c2)cc1C(=O)O [Example 39, 5-(3-((4-((Benzyloxy)methyl)phenyl)carbamoyl)phenyl)-2-methylnicotinic acid] | < 1000 nM
24 | O=C(Nc1ccc(OCCc2ccccc2)cc1)c1cccc(-c2ccncc2C(=O)O)c1 [Example 26, 4-(3-((4-Phenethoxyphenyl)carbamoyl)phenyl)nicotinic acid] | 1000 to 10000 nM
25 | O=C(Nc1cccc(-c2cccc(C(=O)O)n2)c1)c1ccc(OCCCCc2ccccc2)cc1 [Example 48, 6-(3-(4-(4-Phenylbutoxy)benzamido)phenyl)picolinic acid] | < 1000 nM
26 | Cc1ncc(-c2cccc(C(=O)Nc3ccc(COCC4CC4)cc3)c2)cc1C(=O)O [Example 44, 5-(3-((4-((Cyclopropylmethoxy)methyl)phenyl)carbamoyl)phenyl)-2-methylnicotinic acid] | 1000 to 10000 nM
27 | O=C(Nc1ccc(OCCc2ccccc2)cc1)c1cccc(-c2cnc(N3CCOCC3)c(C(=O)O)c2)c1 [Example 33, 2-Morpholino-5-(3-((4-phenethoxyphenyl)carbamoyl)phenyl)nicotinic acid] | < 1000 nM
28 | O=C(O)c1cncc(-c2cccc(C(=O)Nc3ccc(OCCc4ccccc4)cc3)c2)c1 [Example 5, 5-(3-((4-Phenethoxyphenyl)carbamoyl)phenyl)nicotinic acid] | < 1000 nM
29 | O=C(O)Cc1cncc(-c2cccc(C(=O)Nc3ccc(OCCc4ccccc4)cc3)c2)c1 [Example 6, 2-(5-(3-((4-Phenethoxyphenyl)carbamoyl)phenyl)pyridin-3-yl)acetic acid] | < 1000 nM
